These results are taken from US7473711B2, “Androgen modulators” (Pfizer Inc., priority 2004, dated 2009).

Changes are numbered by the printed parent chain. Like-named read-outs stand apart in the source and are kept apart here. Bounds are passed on as bounds.

In assay [1] the target is T1, hAR (human androgen receptor) (Homo sapiens, UniProt P10275).
T1 construct: made in house; host or cells: baculovirus/Sf9 insect cells (extract)
T1 sequence (P10275 1-920): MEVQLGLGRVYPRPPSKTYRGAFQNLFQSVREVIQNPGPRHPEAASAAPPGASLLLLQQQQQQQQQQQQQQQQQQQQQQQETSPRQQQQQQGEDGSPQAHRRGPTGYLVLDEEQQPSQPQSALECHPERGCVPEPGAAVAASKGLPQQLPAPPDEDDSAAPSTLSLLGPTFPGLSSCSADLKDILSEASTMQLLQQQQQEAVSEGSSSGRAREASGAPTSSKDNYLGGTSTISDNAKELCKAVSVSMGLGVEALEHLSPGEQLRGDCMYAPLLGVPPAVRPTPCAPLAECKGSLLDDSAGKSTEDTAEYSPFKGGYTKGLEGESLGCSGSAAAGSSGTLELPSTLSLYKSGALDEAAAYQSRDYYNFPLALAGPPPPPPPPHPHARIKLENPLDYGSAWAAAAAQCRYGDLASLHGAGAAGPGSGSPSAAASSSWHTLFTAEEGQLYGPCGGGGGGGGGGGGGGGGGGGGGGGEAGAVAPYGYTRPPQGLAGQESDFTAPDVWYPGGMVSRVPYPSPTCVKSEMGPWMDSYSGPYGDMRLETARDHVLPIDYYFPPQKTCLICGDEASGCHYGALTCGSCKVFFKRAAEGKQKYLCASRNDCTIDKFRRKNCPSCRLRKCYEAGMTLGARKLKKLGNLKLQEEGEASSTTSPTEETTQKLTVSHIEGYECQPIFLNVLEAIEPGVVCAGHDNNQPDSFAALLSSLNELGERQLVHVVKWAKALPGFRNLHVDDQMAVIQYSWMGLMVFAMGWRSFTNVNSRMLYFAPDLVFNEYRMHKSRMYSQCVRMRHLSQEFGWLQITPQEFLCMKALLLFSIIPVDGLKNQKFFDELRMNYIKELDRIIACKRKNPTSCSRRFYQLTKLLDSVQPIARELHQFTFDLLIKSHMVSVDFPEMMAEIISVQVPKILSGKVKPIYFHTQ
Nature of the assay: Competitive binding analysis on hAR extracts with 3H-DHT tracer. Here is the method:
The compounds of Formula I have affinity for the androgen receptor. […] The description below describes how the assay was carried out.
Competitive binding analysis was performed on baculovirus/Sf9 generated hAR extracts in the presence or absence of different concentrations of test agent and a fixed concentration of ^3H-dihydrotestosterone (^3H-DHT) as tracer. This binding assay method is a modification of a protocol previously described (Liao S., et. al. J. Steroid Biochem. 20:11-17 1984). Briefly, progressively decreasing concentrations of compounds are incubated in the presence of hAR extract (Chang et al. P.N.A.S. Vol. 89, pp. […], 1992), hydroxylapatite, and 1 nM ^3H-DHT for one hour at 4° C. Subsequently, the binding reactions are washed three times to completely remove excess unbound ^3H-DHT. hAR bound ^3H-DHT levels are determined in the presence of compounds (i.e. competitive binding) and compared to levels bound when no competitor is present (i.e. maximum binding). Compound binding affinity to the hAR is expressed as the concentration of compound at which one half of the maximum binding is inhibited. Table II below provides the results that were obtained for selected compounds (reported data is the mean of multiple tests as shown below)

In assay [2] the target is T2, androgen receptor in MDA-MB453-MMTV clone 54-19 cells (Homo sapiens, UniProt P10275).
T2 sequence (P10275 1-920 Q868H): T1 sequence (P10275 1-920) with Q868H
Nature of the assay: AR antagonist cell assay (MMTV-luciferase reporter, 100 pM DHT). The settings on record: MDA-MB453-MMTV clone 54-19, inhibition of 100 pM DHT induced luciferase, 17 hr; mean of multiple tests; read-out: AR Cell IC50. It counts as cell-based. Here is the method:
The compounds ability to antagonize the effects of androgen on the androgen receptor were determined in a whole cell assay as described immediately below.
Experimental Procedure for AR Antagonist Cell Assay
Cell line: MDA-MB453-MMTV clone 54-19. This cell line is a stable transfected cell line with MDA-MB453 cell background (a human breast tumor cell line expressing androgen receptor). A MMTV minimal promoter containing ARE was first cloned in front of a firefly luciferase reporter gene. Then the cascade was cloned into transfection vector pUV120puro. Electroporation method was used for transfecting MDA-MB-453 cell. Puromycin resistant stable cell line was selected. Cell Culture Media and Reagents:
Culture medium: DMEM (high glucose, Gibco cat #: 11960-044), 10% FBS, and 1% L-glutamine
Plating medium: DMEM (phenol red free), 10% charcoal treated HyClone serum, 1% L-glutamine
Assay medium: DMEM (phenol red free), 1% charcoal treated HyClone serum, 1% L-glutamine, and 1% penicillin/streptomycin
3X luciferase buffer: 2% beta-mercaptoethanol, 0.6% ATP, 0.0135% luciferine in cell lysis buffer
• 1. Cells are maintained in culture medium, splitting cells when they reach 80-90% confluence • 2. To test compounds, 10,000 cells/well are plated to opaque 96 cell culture plate in 100 ul/well plating medium, culture for overnight at 37° C. in cell culture incubator • 3. Carefully remove plating medium, then add 80 ul/well of pre-warmed assay medium, add 10 ul/well testing compound (final concentration at) 1000 nM, 200 nM, 40 nM, 8 nM, 1.6 nM, and 0.32 nM), incubate at 37° C. for 30 minutes • 4. Add 10 ul/well freshly prepared DHT (final concentration at 100 pM) to each well, incubate at 37° C. for 17 hr (overnight) • 5. Add 50 ul/well 3X luciferase buffer, incubate at room temperature for 5 minutes, then count on Luminometer
The fold induction over background by 100 pM DHT in the absence of testing compounds is standardized as 100% and experimental result is expressed as percentage of inhibition by testing compounds.
The results are reported as the mean of multiple tests as described below (the numbers of tests are indicated in the footnote). N.D. denotes that the compound was not tested.

For a further assay, the system named is spinal BMD. The settings on record: after 7 years of treatment; cited from earlier work.
The mark [3] stands for this setting: baculovirus/Sf9 hAR extract, 1 nM 3H-DHT, one hour at 4° C, mean of multiple tests, read-out: AR Binding IC50.

The term IC50 denotes the point on the concentration scale where inhibition reaches its midpoint. Take `CCOCC(COc1ccc(C#N)c(C(F)(F)F)c1)Oc1ccc(C#N)c(C(F)(F)F)c1` (stereo not shown) [Example 6, 4,4′-[(3-Ethoxypropane-1,2-diyl)bis(oxy)]bis[2-(trifluoromethyl)benzonitrile]]: the IC50 in assay [1] (setting [3]) was 124 nM; in assay [2], greater than 1000 nM.

As for `CC(COc1ccc(C#N)c(C(F)(F)F)c1)COc1ccc(C#N)c(C(F)(F)F)c1` [Example 12, 4,4′-[(2-Methylpropane-1,3-diyl)bis(oxy)]bis[2-(trifluoromethyl)benzonitrile]], the IC50 was 233 nM in assay [1] (setting [3]) and greater than 1000 nM in assay [2].

`CC1(C)CC1(COc1ccc(C#N)c(C(F)(F)F)c1)Oc1ccc(C#N)c(C(F)(F)F)c1` (stereo not shown) [Example 10, 4-[1-(4-Cyano-3-trifluoromethyl-phenoxymethyl)-2,2-dimethyl-cyclopropoxy]-2-trifluoromethyl-benzonitrile]: the IC50 came out at 174 nM in assay [1] (setting [3]) and 447 nM in assay [2].

`CC(CCC(C)Oc1ccc(C#N)c(C(F)(F)F)c1)Oc1ccc(C#N)c(C(F)(F)F)c1` (stereo not shown) [Example 22, 4,4′-[Hexane-2,5-diylbis(oxy)]bis[2-(trifluoromethyl)benzonitrile]]: the IC50 in assay [1] (setting [3]) came out at 293 nM; in assay [2], 322 nM.

As to `CCCC(CCCOc1ccc(C#N)c(C(F)(F)F)c1)Oc1ccc(C#N)c(C(F)(F)F)c1` (stereo not shown) [Example 21, 4,4′-[Heptane-1,4-diylbis(oxy)]bis[2-(trifluoromethyl)benzonitrile]], the IC50 in assay [1] (setting [3]) is 233 nM; in assay [2], greater than 1000 nM.

Turning to `COC[C@@H](COc1ccccc1)Oc1ccc(C#N)c(C(F)(F)F)c1` [Example 31, (1S)-4-(1-Methoxymethyl-2-phenoxy-ethoxy)-2-trifluoromethyl-benzonitrile], the values for the IC50 in assay [1] and in assay [2] were 46 nM and 126 nM, respectively.

Consider `C[C@H](CCOc1ccc(C#N)c(C(F)(F)F)c1)Oc1ccc(C#N)c(C(F)(F)F)c1` [Example 14, 4-({(3R)-3-[4-Cyano-3-(trifluoromethyl)phenoxy]butyl}oxy)-2-(trifluoromethyl)benzonitrile], for which the values for the IC50 in assay [1] (setting [3]) and in assay [2] were 281 nM and 905 nM, respectively.

Consider `CC(CCCCOc1ccc(C#N)c(C(F)(F)F)c1)Oc1ccc(C#N)c(C(F)(F)F)c1` (stereo not shown) [Example 25, 4,4′-[Hexane-1,5-diylbis(oxy)]bis[2-(trifluoromethyl)benzonitrile]], for which the IC50 in assay [1] (setting [3]) was 159 nM; in assay [2] it was greater than 1000 nM.

For `N#Cc1ccc(O[C@H](CO)COc2ccccc2)cc1C(F)(F)F` [Example 29, (1R)-4-(1-Hydroxymethyl-2-phenoxy-ethoxy)-2-trifluoromethyl-benzonitrile], the IC50 in assay [1] worked out at 44 nM; in assay [2] it was 117 nM.

Take `C[C@H](Oc1ccc(C#N)c(C(F)(F)F)c1)[C@H](C)Oc1ccc(C#N)c(C(F)(F)F)c1` [Example 1, 4,4′-[(2S,3S)-Butane-2,3-diylbis(oxy)]bis[2-(trifluoromethyl)benzonitrile]]: the IC50 in assay [1] (setting [3]) amounted to 191 nM; in assay [2] it was 531 nM.

Consider `CCCCCCC(COc1ccc(C#N)c(C(F)(F)F)c1)Oc1ccc(C#N)c(C(F)(F)F)c1` (stereo not shown) [Example 9, 4,4′-[Octane-1,2-diylbis(oxy)]bis[2-(trifluoromethyl)benzonitrile]], for which the results for the IC50 in assay [1] (setting [3]) and in assay [2] were 109 nM and 531 nM, respectively.

For `N#Cc1ccc(OCCCOc2ccc(C#N)c(C(F)(F)F)c2)cc1C(F)(F)F` [Example 11, 4,4′-[Propane-1,3-diylbis(oxy)]bis[2-(trifluoromethyl)benzonitrile]], the IC50 in assay [1] (setting [3]) was 165 nM; in assay [2] it was greater than 1000 nM.

For the molecule `NCCCC(O)(P(=O)(O)O)P(=O)(O)O` [alendronate], in the assay with spinal BMD, the “increase in spinal BMD” value is on record as no more than 11%.
